This passage reports EC50 results from ChEMBL document CHEMBL1151612, “Potential anticancer agents XXXII. Hydroquinone from Ipomopsis aggregata” (1984).

One assay deals with P388. Nature of the assay: Cytotoxicity against mouse P388 cells. The following applies: P388, read-out: ED50.
The test system of the next assay is KB. Put plainly: Cytotoxicity against human KB cells. The following applies: read-out: ED50.

≈ marks a conversion by molar mass, not a printed value.

`Oc1ccc(O)cc1` [HYDROQUINONE]: the EC50 stood at 2.2 µg/mL (≈ 20 µM) in the assay with P388 and 3.8 µg/mL (≈ 34.5 µM) in the assay on KB.
